This test concerns the target T1, PI3Kα G106V mutant (Homo sapiens, UniProt P42336, G106V).
T1 construct: Full-length human p110α was expressed either in a complex with full-length human p85α (for HTS, biochemistry and HDX-MS); 6xHis tag followed by TEV protease site (N); host or cells: Sf9, baculovirus
Briefly: ADP-Glo catalytic activity, oncogenic mutant G106V. The test is classed as biochemical. As for the experimental part: Expression and purification of wild-type p110α (Cambridge MRC Laboratory for Molecular Biology (LMB-MRC) plasmid number OP831) in a complex with full-length p85α (LMB-MRC plasmid OP809) was performed as described. The oncogenic mutants G106V (LMB-MRC plasmid JB35), N345K (LMB-MRC plasmid OP661) and E545K (LMB-MRC plasmid OP663) were also purified using this protocol. Briefly, 10 litres of Spodoptera frugiperda (Sf9) cell culture at a density of 1.0 x 10^6 cells/ml were co-infected with a p85α-encoding virus [LMB-MRC plasmid OP809]. and a virus encoding p110α with an N-terminal 6xHis tag followed by a tobacco etch virus (TEV) protease site [LMB-MRC plasmid OP831]. After a 48 h infection at 27°C, cells were harvested and washed with PBS. […]
For characterisation of the effects of 1938 on in vitro PI3K enzymology, all reactions were performed at room temperature with 384 white-polystyrene plates (Corning #3574). […] Data was expressed as velocity (nmol of ADP generated/nmol of enzyme/sec). […] Luminescence was read using a PHERAstar® plate reader with software version 5.41, and analyses were performed using GraphPad Prism 8/9.

T1 sequence (P42336 whole entry G106V): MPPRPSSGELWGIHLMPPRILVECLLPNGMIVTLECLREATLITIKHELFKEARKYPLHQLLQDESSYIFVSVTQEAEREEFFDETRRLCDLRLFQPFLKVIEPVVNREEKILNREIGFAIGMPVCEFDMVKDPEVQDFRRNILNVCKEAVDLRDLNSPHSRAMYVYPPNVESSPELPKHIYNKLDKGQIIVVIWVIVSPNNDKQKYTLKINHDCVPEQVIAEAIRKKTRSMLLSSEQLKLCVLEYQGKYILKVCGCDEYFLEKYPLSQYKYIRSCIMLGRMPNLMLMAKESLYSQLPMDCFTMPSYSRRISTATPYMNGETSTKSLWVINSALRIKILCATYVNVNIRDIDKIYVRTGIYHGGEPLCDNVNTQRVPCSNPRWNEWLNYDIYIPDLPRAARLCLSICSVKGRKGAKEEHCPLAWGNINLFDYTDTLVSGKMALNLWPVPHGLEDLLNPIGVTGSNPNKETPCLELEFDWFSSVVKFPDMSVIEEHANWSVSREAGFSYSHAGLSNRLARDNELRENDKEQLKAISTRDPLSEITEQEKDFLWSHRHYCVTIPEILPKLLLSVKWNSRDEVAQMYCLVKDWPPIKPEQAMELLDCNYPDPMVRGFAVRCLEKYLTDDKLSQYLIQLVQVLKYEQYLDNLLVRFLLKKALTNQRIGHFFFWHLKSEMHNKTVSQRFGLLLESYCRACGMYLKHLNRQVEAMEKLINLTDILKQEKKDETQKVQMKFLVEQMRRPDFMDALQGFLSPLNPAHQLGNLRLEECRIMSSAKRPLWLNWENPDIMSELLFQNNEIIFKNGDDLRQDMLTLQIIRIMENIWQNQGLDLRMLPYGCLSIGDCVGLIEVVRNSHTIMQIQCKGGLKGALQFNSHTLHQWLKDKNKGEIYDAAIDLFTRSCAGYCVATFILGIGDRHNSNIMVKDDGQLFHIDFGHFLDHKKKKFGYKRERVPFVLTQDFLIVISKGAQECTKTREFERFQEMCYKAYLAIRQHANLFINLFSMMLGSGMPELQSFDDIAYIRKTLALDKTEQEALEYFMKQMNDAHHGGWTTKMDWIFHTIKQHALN
T1 sequence (P27986 whole entry partner): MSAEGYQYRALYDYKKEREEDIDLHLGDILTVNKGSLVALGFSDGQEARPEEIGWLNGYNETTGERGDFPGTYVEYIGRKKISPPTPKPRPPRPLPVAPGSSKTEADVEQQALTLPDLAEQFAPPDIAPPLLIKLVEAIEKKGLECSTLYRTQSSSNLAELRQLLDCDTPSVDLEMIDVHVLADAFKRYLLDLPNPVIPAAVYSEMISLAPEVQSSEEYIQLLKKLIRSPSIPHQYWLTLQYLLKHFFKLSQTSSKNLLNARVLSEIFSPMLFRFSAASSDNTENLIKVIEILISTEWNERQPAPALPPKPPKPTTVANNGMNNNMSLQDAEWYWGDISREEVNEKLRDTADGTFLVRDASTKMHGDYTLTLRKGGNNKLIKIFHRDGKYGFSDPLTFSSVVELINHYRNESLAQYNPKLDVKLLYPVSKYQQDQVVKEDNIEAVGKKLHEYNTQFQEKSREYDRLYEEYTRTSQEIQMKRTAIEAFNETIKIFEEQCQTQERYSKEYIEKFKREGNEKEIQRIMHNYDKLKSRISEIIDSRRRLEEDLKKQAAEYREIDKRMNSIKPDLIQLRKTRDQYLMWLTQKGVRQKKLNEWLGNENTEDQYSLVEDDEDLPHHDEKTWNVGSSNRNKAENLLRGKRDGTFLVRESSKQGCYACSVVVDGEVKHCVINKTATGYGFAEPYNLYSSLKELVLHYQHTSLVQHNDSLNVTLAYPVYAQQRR

Take `CCN1CCN(c2ccc(Nc3cc(Nc4cccc5c4N(C(C)=O)CC5)ccn3)cc2)CC1` [Compound 1938]: the “activation of G106V mutant” value is given as “levels comparable with stimulation with pY”.

For the origin of these results see article PMC7614683, “A small molecule PI3Kα activator for cardioprotection and neuroregeneration” (Nature, 2023).
